# Test results: publication PMC10746543, “Design principles for cyclin K molecular glue degraders” (Nature Chemical Biology, 2023)
# Where “and” joins values, the source holds several entries; their conditions need not be identical. Equal values may be shown once. Read-outs that look alike come from different tables or passages of the source.
# Key:
# [1] = test system: cyclin K–eGFP degradation reporter; assay: Cyclin K reporter stability analysis (dual-color cyclin K–eGFP reporter); format: cell-based, human
# Outline: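 First, reporter-bearing HEK293T–Cas9 cells are plated at 1 × 10^6 ml^−1. Next, drug or vehicle is added for 5 h. Finally, geometric-mean eGFP and mCherry signals of round, mCherry-positive cells are measured cytometrically, and their ratio is referenced to the DMSO average.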
# [2] = target: T1, CDK12–cyclin K and DDB1 (Homo sapiens, UniProt Q16531+Q9NYV4, K965R); assay: TR-FRET ternary complex formation assay (compound titration); format: binding
# T1 construct: His6–CDK12 (a.a. 713–1,052); full-length or beta-propeller B domain deletion (ΔBPB: a.a. 396–705 deleted) constructs of His6–DDB1ΔBPB, StrepII–Avi–DDB1, or His6–Spy–DDB1; made in house; host or cells: Trichoplusia ni High Five insect cells (baculovirus)
# T1 sequence (Q9NYV4 713-1052 K965R): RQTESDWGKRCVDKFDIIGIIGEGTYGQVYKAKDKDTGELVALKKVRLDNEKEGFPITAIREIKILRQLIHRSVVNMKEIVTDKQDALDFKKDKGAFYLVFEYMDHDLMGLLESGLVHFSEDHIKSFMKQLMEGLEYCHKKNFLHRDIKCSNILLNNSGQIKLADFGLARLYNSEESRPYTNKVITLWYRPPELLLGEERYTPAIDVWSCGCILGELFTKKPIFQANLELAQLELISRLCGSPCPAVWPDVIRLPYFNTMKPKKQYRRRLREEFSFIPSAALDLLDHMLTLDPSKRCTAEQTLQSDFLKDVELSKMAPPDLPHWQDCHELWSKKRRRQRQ
# T1 sequence (O75909 1-267 partner): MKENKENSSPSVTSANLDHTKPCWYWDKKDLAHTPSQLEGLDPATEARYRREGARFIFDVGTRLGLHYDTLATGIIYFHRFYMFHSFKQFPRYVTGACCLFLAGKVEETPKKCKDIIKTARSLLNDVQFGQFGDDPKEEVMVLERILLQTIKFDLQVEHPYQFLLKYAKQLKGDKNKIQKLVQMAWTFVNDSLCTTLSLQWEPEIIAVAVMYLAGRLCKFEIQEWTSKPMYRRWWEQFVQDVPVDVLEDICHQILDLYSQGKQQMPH
# T1 sequence (Q16531 whole entry): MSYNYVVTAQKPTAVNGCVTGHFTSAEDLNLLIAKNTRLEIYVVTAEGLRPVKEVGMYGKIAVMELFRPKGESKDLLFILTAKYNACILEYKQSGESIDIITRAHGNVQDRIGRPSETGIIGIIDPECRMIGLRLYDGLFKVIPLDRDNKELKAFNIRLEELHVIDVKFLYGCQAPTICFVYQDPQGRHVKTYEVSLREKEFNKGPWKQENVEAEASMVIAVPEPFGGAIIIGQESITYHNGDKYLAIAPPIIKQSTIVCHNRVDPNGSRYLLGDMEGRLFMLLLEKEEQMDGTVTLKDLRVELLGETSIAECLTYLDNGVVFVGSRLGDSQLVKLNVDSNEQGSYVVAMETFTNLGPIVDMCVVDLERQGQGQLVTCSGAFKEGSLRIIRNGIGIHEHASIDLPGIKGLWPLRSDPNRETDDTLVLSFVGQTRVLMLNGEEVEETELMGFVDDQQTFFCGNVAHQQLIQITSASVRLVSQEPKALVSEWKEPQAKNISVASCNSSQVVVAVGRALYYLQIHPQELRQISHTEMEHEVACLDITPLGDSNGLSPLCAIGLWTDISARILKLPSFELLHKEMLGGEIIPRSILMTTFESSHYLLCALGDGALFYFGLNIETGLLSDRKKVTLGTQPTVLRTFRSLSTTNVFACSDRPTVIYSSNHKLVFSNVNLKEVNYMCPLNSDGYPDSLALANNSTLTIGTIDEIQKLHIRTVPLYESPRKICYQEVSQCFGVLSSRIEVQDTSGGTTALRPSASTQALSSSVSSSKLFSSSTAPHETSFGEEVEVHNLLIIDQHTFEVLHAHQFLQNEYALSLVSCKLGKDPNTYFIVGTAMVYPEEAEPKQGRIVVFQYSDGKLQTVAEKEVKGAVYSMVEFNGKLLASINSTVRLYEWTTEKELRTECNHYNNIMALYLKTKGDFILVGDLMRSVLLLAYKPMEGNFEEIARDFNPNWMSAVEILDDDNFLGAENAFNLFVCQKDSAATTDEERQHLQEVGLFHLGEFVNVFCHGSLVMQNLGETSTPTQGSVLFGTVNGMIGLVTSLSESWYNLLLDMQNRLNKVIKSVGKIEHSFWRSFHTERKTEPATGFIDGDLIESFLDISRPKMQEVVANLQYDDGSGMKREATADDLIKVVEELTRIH
# Outline: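 Signal was the ratio of 520 nm to 490 nm fluorescence, measured after a 70 μs delay that reduced background.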
# [3] = test system: HEK293T cells; assay: Drug sensitivity assay (CellTiter-Glo viability) with or without MLN4924 pretreatment; format: cell-based, human; details: for EC50: Homo sapiens, HEK-293T; for Toxicity rescue: MLN4924-mediated cytotoxicity rescue, 10 µM used where n.d.
# Outline: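 HEK293T–Cas9, 0.15 × 10^6 ml^−1; pretreat DMSO vs 100 nM MLN4924; drugs dispensed after 2 h; 3 d exposure; CellTiter-Glo; viability vs DMSO control.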
# [4] = Supplementary Fig. 5, HEK293T, CellTiter Glo, 72h, read-out: Viability EC50, no MLN4924
# [5] = Supplementary Table 2, HEK293T viability, 72 h, compound alone, read-out: Cellular assays EC50
# [6] = source data sheet correlations, read-out: DC50
# [7] = in vitro complex formation, 50 nM CDK12–cyclin K, 100 nM DDB1, text and figures, read-out: TR-FRET EC50
# [8] = sheet MOESM7, read-out: log TR-FRET EC50 (converted)
# [9] = source data sheet correlations, read-out: TR-FRET EC50
smiles,measurement,setting,value
Cn1cc(-n2cnc3c(NCc4nc5cc(O)ccc5[nH]4)nc(N4CCOCC4)nc32)cn1 [DS54],DC50,"[1]; Supplementary Table 2, HEK293T cycK-eGFP reporter, 5 h, read-out: Cellular assays DC50",> 10000 nM
same,EC50,"[2]; Supplementary Table 2, read-out: TR-FRET EC50 TR-FRET",252 nM
same,TR-FRET signal,[2]; compound concentration 4.68 nM,0.1326 and 0.1303
same,TR-FRET signal at compound concentration 4.68 nM,"[2]; compound concentration 4.68 nM, raw replicate titration data",0.1326 and 0.1303
same,TR-FRET signal,[2]; compound concentration 21.6 nM,0.1333 and 0.1406
same,TR-FRET signal at compound concentration 21.6 nM,"[2]; compound concentration 21.6 nM, raw replicate titration data",0.1333 and 0.1406
same,TR-FRET signal,[2]; compound concentration 36 nM,0.1624 and 0.1682
same,TR-FRET signal at compound concentration 36 nM,"[2]; compound concentration 36 nM, raw replicate titration data",0.1624 and 0.1682
same,TR-FRET signal,[2]; compound concentration 79.2001 nM,0.2054 and 0.2174
same,TR-FRET signal at compound concentration 79.2001 nM,"[2]; compound concentration 79.2001 nM, raw replicate titration data",0.2054 and 0.2174
same,TR-FRET signal,[2]; compound concentration 158.4 nM,0.3007
same,TR-FRET signal at compound concentration 158.4 nM,"[2]; compound concentration 158.4 nM, raw replicate titration data",0.3007
same,TR-FRET signal,[2]; compound concentration 309.6 nM,0.4286 and 0.4588
same,TR-FRET signal at compound concentration 309.6 nM,"[2]; compound concentration 309.6 nM, raw replicate titration data",0.4286 and 0.4588
same,TR-FRET signal,[2]; compound concentration 626.401 nM,0.5953 and 0.5848
same,TR-FRET signal at compound concentration 626.401 nM,"[2]; compound concentration 626.401 nM, raw replicate titration data",0.5953 and 0.5848
same,TR-FRET signal,[2]; compound concentration 1252.8 nM,0.6865 and 0.6689
same,TR-FRET signal at compound concentration 1252.8 nM,"[2]; compound concentration 1252.8 nM, raw replicate titration data",0.6865 and 0.6689
same,TR-FRET signal,[2]; compound concentration 2448 nM,0.7142 and 0.68
same,TR-FRET signal at compound concentration 2448 nM,"[2]; compound concentration 2448 nM, raw replicate titration data",0.7142 and 0.68
same,TR-FRET signal,[2]; compound concentration 9936.01 nM,0.6777 and 0.6603
same,TR-FRET signal at compound concentration 9936.01 nM,"[2]; compound concentration 9936.01 nM, raw replicate titration data",0.6777 and 0.6603
same,TR-FRET signal,[2]; compound concentration 20016 nM,0.6177 and 0.617
same,TR-FRET signal at compound concentration 20016 nM,"[2]; compound concentration 20016 nM, raw replicate titration data",0.6177 and 0.617
same,EC50,"[3]; Supplementary Fig. 5, HEK293T, CellTiter Glo, 72h, pre-treatment with 100 nM MLN4924, read-out: Viability EC50, with MLN4924",3290 nM
same,EC50,[3]; [4],73 nM
same,EC50,[3]; [5],> 10000 nM
same,Toxicity rescue,[3]; Supplementary Table 2,0%
Cn1cc(-n2cnc3c(NCc4nc5cc(Cl)c(Cl)cc5[nH]4)nc(NCCc4cn[nH]c4)nc32)cn1 [DS57],DC50,[1]; [6],587 nM
same,TR-FRET signal at compound concentration 0.468 nM,"[2]; compound concentration 0.468 nM, raw replicate titration data",0.2681 and 0.2803
same,TR-FRET signal at compound concentration 2.16 nM,"[2]; compound concentration 2.16 nM, raw replicate titration data",0.3056 and 0.3131
same,TR-FRET signal at compound concentration 3.6 nM,"[2]; compound concentration 3.6 nM, raw replicate titration data",0.3611 and 0.3774
same,TR-FRET signal at compound concentration 7.92001 nM,"[2]; compound concentration 7.92001 nM, raw replicate titration data",0.4715 and 0.4922
same,TR-FRET signal at compound concentration 15.84 nM,"[2]; compound concentration 15.84 nM, raw replicate titration data",0.6621 and 0.6827
same,TR-FRET signal at compound concentration 30.96 nM,"[2]; compound concentration 30.96 nM, raw replicate titration data",1.043 and 1.045
same,TR-FRET signal at compound concentration 62.6401 nM,"[2]; compound concentration 62.6401 nM, raw replicate titration data",1.709 and 1.668
same,TR-FRET signal at compound concentration 125.28 nM,"[2]; compound concentration 125.28 nM, raw replicate titration data",2.476 and 2.42
same,TR-FRET signal at compound concentration 244.8 nM,"[2]; compound concentration 244.8 nM, raw replicate titration data",2.963 and 3.026
same,TR-FRET signal at compound concentration 993.601 nM,"[2]; compound concentration 993.601 nM, raw replicate titration data",3.269 and 3.459
same,TR-FRET signal at compound concentration 2001.6 nM,"[2]; compound concentration 2001.6 nM, raw replicate titration data",3.336 and 3.495
same,EC50,[2]; [7],72 ± 5 nM
same,EC50,[2]; [8],72.3 nM
same,EC50,[2]; [9],72.3 nM
same,EC50,[3]; [5],> 10000 nM
same,Toxicity rescue,[3]; Supplementary Table 2,0%
CC(C)n1cnc2c(NCc3ccc(-c4ccccn4)cc3)nc(N[C@@H](Cc3ccc(OCc4ccccc4)cc3)c3nnc[nH]3)nc21 [DS58],DC50,[1]; [6],2020 nM
same,TR-FRET signal at compound concentration 4.68 nM,"[2]; compound concentration 4.68 nM, raw titration data",0.2093 and 0.2396
same,TR-FRET signal at compound concentration 21.6 nM,"[2]; compound concentration 21.6 nM, raw titration data",0.2345 and 0.3021
same,TR-FRET signal at compound concentration 36 nM,"[2]; compound concentration 36 nM, raw titration data",0.286 and 0.3105
same,TR-FRET signal at compound concentration 79.2001 nM,"[2]; compound concentration 79.2001 nM, raw titration data",0.3776 and 0.414
same,TR-FRET signal at compound concentration 158.4 nM,"[2]; compound concentration 158.4 nM, raw titration data",0.5529 and 0.574
same,TR-FRET signal at compound concentration 309.6 nM,"[2]; compound concentration 309.6 nM, raw titration data",0.8665 and 0.8767
same,TR-FRET signal at compound concentration 626.401 nM,"[2]; compound concentration 626.401 nM, raw titration data",1.353 and 1.369
same,TR-FRET signal at compound concentration 1252.8 nM,"[2]; compound concentration 1252.8 nM, raw titration data",2.037 and 2.014
same,TR-FRET signal at compound concentration 2448 nM,"[2]; compound concentration 2448 nM, raw titration data",2.68 and 2.699
same,TR-FRET signal at compound concentration 9936.01 nM,"[2]; compound concentration 9936.01 nM, raw titration data",3.329 and 3.445
same,TR-FRET signal at compound concentration 20016 nM,"[2]; compound concentration 20016 nM, raw titration data",3.076 and 3.1
same,EC50,[2]; [7],948 ± 61 nM
same,EC50,[2]; [8],948 nM
same,EC50,[2]; [9],948 nM
same,EC50,[3]; [4],1750 nM
same,EC50,[3]; [5],1780 nM
same,Toxicity rescue,[3]; Supplementary Table 2,461%
